Legend:
GABAA receptor [1] = assay: Experiment 2: regeneration of GABAA receptor responses in reactive astrocytes; type: cell-based, rat; details: 14 DIV after serial passages, control 8 ± 6
Method: (§1) Preparation of astrocyte cultures: After removing the meninges, isolated cerebrum of neonatal rats (age: day 1) were placed on frosted glass-slides and minced. The sample was then digested with trypsin (0.25%) and DNase 1 (0.02%) and suspended in 10% FCS-DMEM before centrifugation. After resuspending in 10% FCS-DMEM, the suspension was dispersed in dishes and cultured at 37° C. under 5% CO2 atmosphere. Non-adherent cells were removed from the dishes after agitation/washing on post-culture 24 hours. Note that the adherent cell population was composed of more than 95% of GFAP-positive cells.
(§2) GFAP contents and GABAA receptor responses: The improvement effects on astrocyte functions were evaluated from the following indices: inhibition derived from the increase in GFAP content and inhibition in the disappearance of GABAA receptor responses. Thus, sodium valproate (Sigma Chem. Co., U.S.A.) was added on 1 DIV followed by whole-cell mode voltage-clamp method on 7 DIV-to measure the GABA (3×10^−5 M)-induced Cl^− current. The Cl^− current was taken as an index for the GABA response. Furthermore, GFAP contents were determined by the ELISA method on 11 DIV.
Astrocytes were prepared and cultured in a manner similar to Experiment 1. On 14 DIV, reactive astrocytes were subjected to a serial passage (10^5 cells/dish). The thus adherent reactive astrocytes were washed, and transferred to culture media containing the present effectively developed compound(s) or invention. On 14 DIV after serial passages, GABAA receptor responses were tested according to procedures designated in Experiment 1.

astrocytes = assay: Experiment 1: GFAP contents of cultured astrocytes (ELISA); type: cell-based, rat; details: added on 1 DIV, ELISA on 11 DIV, ratio of the control group (control 100.0)
Method: as §1, §2
The GFAP contents were expressed as a ratio of the control group.

GABAA receptor [2] = assay: Experiment 1: GABAA receptor responses of cultured astrocytes (GABA-induced Cl- current, whole-cell voltage-clamp); type: cell-based, rat; details: added on 1 DIV, measured on 7 DIV, GABA 3×10^−5 M-induced Cl− current, control 90 ± 43
Method: as §1, §2

neurons = assay: Experiment 3: suppression of cell death in neurons-astrocytes co-culture; type: cell-based, rat; details: 3 mM, neurons co-cultured with astrocytes
Method: Astrocytes, prepared in a manner similar to that of Experiment 1, were cultured for 14 days. Previously prepared neurons (3×10^4 cells/well), isolated from cerebrum of 19-day old fetus rats, were added to the cultured astrocytes (3×10^5 cells/well) and allowed to grow. During the culture process, survival rates and neuronal dendrite extension/ramification of neurons were observed. Note that, sodium valproate (3 mM) and astrocytes were initially added to the neurons concomitantly, and freshly prepared similar culture media containing the invented compound (3 mM) were subsequently added at 3˜4-day intervals.

[3] = test system: experimental brain ischemia model; assay: Experiment 4: experimental brain ischemia, conditional avoidance experiment; type: in vivo, rat; details: 300 mg/kg i.p. once daily for 4 days after deligation; 10 trials within 2 days; ischemic reference 2.8±0.8, normal 6.1±0.7, sham 4.8±0.8
Method: Establishing the experimental brain ischemia model: Vertebral arteries of pentobarbital-anesthetized rats were bilaterally coagulated, and a period of 7 days was allowed for recovery. The previously surgically exposed bilateral common carotid arteries of ischemic rats were mechanically ligated for 20 min. Immediately after deligation, the rats were once daily injected i.p. with sodium valproate (300 mg/kg) for 4 consecutive days. On deligation day 5˜6, mobility aspects in the conditional avoidance experiment were monitored.
Mobility aspects of the conditional avoidance experiment: The step-up model of the dark/light box was used. Animals placed in the dark section of the grid-floored box with the connecting door closed were allowed to accustomed to the environment for 1 minute. The door was then opened for 10 seconds. Rats that stepped up to the lighted section via the opened door were considered positive in the conditional avoidance test. Animals categorized as negative in the test were placed in the dark section with the door closed for 10 seconds prior to subjecting them to electric foot shock at 2 mA for 50 seconds. […] The above procedure was repeated 5 trials per day at 30-minutes intervals. A total of 10 trials within 2 days were attempted.

| SMILES | GABAA receptor responses (means ± S.E.) (GABAA receptor [1]; 0.3 mM) | GABAA receptor responses (means ± S.E.) (GABAA receptor [1]; 1.0 mM) | GABAA receptor responses (means ± S.E.) (GABAA receptor [1]; 3.0 mM) | further results |
| --- | --- | --- | --- | --- |
| CCCC[C@@H](CC)C(=O)O (racemic) [Example 11] | 35 ± 15 pA | 190 ± 134 pA | 281 ± 174 pA | – |
| CCCC(CCCCCC(F)F)C(=O)[O-].[Na+] (centres unmarked) [Example 2(2)] | 527 ± 201 pA | – | – | GABAA receptor responses (means ± S.E.) (GABAA receptor [1]; 0.1 mM): 114 ± 81 pA |
| CCCC(CCCF)C(=O)[O-].[Na+] (centres unmarked) [Example 2(5)] | – | – | 326 ± 148 pA | – |
| CCCC(CCCCF)C(=O)[O-].[Na+] (centres unmarked) [Example 2(6)] | 184.0 ± 118.1 pA | – | 528.0 ± 160.2 pA | – |
| CCCC(CCCC(F)(F)F)C(=O)[O-].[Na+] (centres unmarked) [Example 2(8)] | – | 470.6 ± 124.9 pA | 808.6 ± 325.4 pA | – |
| CCCC(CCCCCC(F)(F)F)C(=O)[O-].[Na+] (centres unmarked) [Example 2(9)] | 236.4 ± 85.5 pA | – | – | – |
| CCCC(CCCCC(F)(F)F)C(=O)[O-].[Na+] (centres unmarked) [Example 2(10)] | 800.0 ± 415.6 pA | – | – | – |
| CCCC(CCC(F)(F)F)C(=O)[O-].[Na+] (centres unmarked) [Example 2(12)] | – | 672 ± 242 pA | 1109 ± 227 pA | – |
| CCCCCCCC(CCC)C(=O)O (centres unmarked) [Example 2-PNA, 2-propylnonanic acid] | 380 ± 124 pA | – | – | GABAA receptor responses (means ± S.E.) (GABAA receptor [1]; 0.03 mM): 85 ± 41 pA; GABAA receptor responses (means ± S.E.) (GABAA receptor [1]; 0.1 mM): 107 ± 50 pA |
| CCCC(CCCCC(F)F)C(=O)[O-].[Na+] (centres unmarked) [Example 2] | 193 ± 103 pA | 628 ± 227 pA | – | – |
| CCCC(CCCCCCF)C(=O)[O-].[Na+] (centres unmarked) [Example 7(1)] | 260.0 ± 47.3 pA | – | – | – |
| CCCC(CCCCCCCF)C(=O)[O-].[Na+] (centres unmarked) [Example 7(2)] | 730.0 ± 226.4 pA | – | – | – |
| CCCC(CCC1CCCCC1)C(=O)[O-].[Na+] (centres unmarked) [Example 7(4)] | 163.0 ± 60.4 pA | – | – | – |
| CCCC(CCCCc1ccccc1)C(=O)[O-].[Na+] (centres unmarked) [Example 7(8)] | – | 59.0 ± 20.6 pA | – | – |
| CCCC(CCCOc1ccccc1)C(=O)[O-].[Na+] (centres unmarked) [Example 7(9)] | 512.1 ± 233.1 pA | – | 226.3 ± 60.5 pA | – |
| CCCC(CCCCOC)C(=O)[O-].[Na+] (centres unmarked) [Example 7(14)] | – | – | 285.7 ± 103.6 pA | – |
| CCCC(CCC(C)C)C(=O)[O-].[Na+] (centres unmarked) [Example 7(16)] | 105 ± 65 pA | 417 ± 140 pA | – | – |
| CCCC(CCCCC(C)C)C(=O)[O-].[Na+] (centres unmarked) [Example 7(17)] | 259.0 ± 83.7 pA | – | – | – |
| CCCC(CCCC(C)C)C(=O)[O-].[Na+] (centres unmarked) [Example 7(18)] | – | 658.6 ± 440.7 pA | – | – |
| CCCC(C(=O)[O-])C1CCCCC1.[Na+] (centres unmarked) [Example 7(26)] | – | – | 344.7 ± 342.5 pA | – |
| C=CCC(CCC)C(=O)[O-].[Na+] (centres unmarked) [Example 7(28)] | – | – | 122 ± 44 pA | – |
| CCCCCC(CCC)C(=O)[O-].[Na+] (centres unmarked) [Example 7(30)] | 233 ± 90 pA | 675 ± 201 pA | – | – |
| CCCCC(CCC)C(=O)[O-].[Na+] (centres unmarked) [Example 7(31)] | 51 ± 28 pA | 565 ± 278 pA | 590 ± 180 pA | – |
| CCCCCCCCC(CCC)C(=O)[O-].[Na+] (centres unmarked) [Example 7(32)] | – | – | – | GABAA receptor responses (means ± S.E.) (GABAA receptor [1]; 0.1 mM): 48 ± 20 pA |
| CCCCCCC(CCC)C(=O)[O-].[Na+] (centres unmarked) [Example 7(33)] | 1260 ± 521 pA | – | – | GABAA receptor responses (means ± S.E.) (GABAA receptor [1]; 0.03 mM): 40 ± 23 pA; GABAA receptor responses (means ± S.E.) (GABAA receptor [1]; 0.1 mM): 237 ± 69 pA |
| CCCCCOC(CCC)C(=O)[O-].[Na+] (centres unmarked) [Example 7(37)] | 139 ± 52 pA | – | 595 ± 190 pA | – |
| CCCC(CCCCCF)C(=O)[O-].[Na+] (centres unmarked) [Example 7] | 213.1 ± 150.1 pA | 661.7 ± 306.3 pA | – | – |
| CCCC(Cl)(CCC)C(=O)OC [Example 9] | – | – | 467 ± 187 pA | – |
| CC/C=C(\CCC)C(=O)[O-].[Na+] [Example 13] | – | – | 171 ± 55 pA | – |
| CCCC(CCC)C(=O)[O-].[Na+] [VPA, sodium valproate] | 37 ± 26 pA | 193 ± 141 pA | 1263 ± 303 pA | Ratio of increase in GFAP contents (astrocytes; 0.3 mM): 30.6%; Ratio of increase in GFAP contents (astrocytes; 1.0 mM): 36.3%; Ratio of increase in GFAP contents (astrocytes; 3.0 mM): 44.3%; GABAA receptor responses (means ± S.E.) (GABAA receptor [2]; 0.3 mM): 254 ± 106 pA; GABAA receptor responses (means ± S.E.) (GABAA receptor [2]; 1.0 mM): 432 ± 98 pA; GABAA receptor responses (means ± S.E.) (GABAA receptor [2]; 3.0 mM): 1301 ± 156 pA; Survival rates (on 22 days) (neurons; control <10%): 60-70%^; dendrite generation in the neurons (neurons; not observed in control): detected; conditional avoidance response, count (frequencies) [3]: 5.3±0.8 |
